Entries after “also recorded” stand apart in the source; their conditions may differ. Like-named read-outs stand apart in the source and are kept apart here.
Legend:
[1] = tested on: H1299 cells or isolated mitochondria; assay: H1299 cells or isolated mitochondria expressing WT, ΔBH3 Bcl2 or vector: IP and Cyt c release; type: cell-based
Description: To further test whether the BH3 domain of Bcl2 is important for BDA-366 activation of Bax, purified recombinant WT and the BH3 deletion (ΔBH3) mutant Bcl2 proteins were incubated with purified Bax protein in the absence or presence of BDA-366, followed by IP with 6A7 antibody. […] To test this at the cellular or mitochondrial level, WT, ΔBH3 Bcl2 mutant and empty vector (pCIneo) were transfected into H1299 cells that express undetectable levels of endogenous Bcl2 but high levels of endogenous Bax. Cells or isolated mitochondria from these cells were treated with BDA-2, followed by IP with Bcl2 BH3 or 6A7 antibody, respectively.
To further test whether BDA-366 induces Cyt c release from mitochondria in a Bcl2 dependent fashion, mitochondria were isolated from H1299 cells expressing WT, ΔBH3 mutant Bcl2 or vector-only control. The isolated mitochondria were treated with BDA-366 (1 μM) for 30 min at 30° C. After centrifugation, Cyt c in the supernatant (i.e. Cyt c release) was analyzed by Western blot.

[2] = tested on: H460 or DMS53 cells expressing Bcl2 shRNA transfected with AAAA Bcl2 mutant; assay: rescue of Bcl2-silenced cells with AAAA Bcl2 mutant; type: cell-based; settings: 72 h
Description: Whether expression of exogenous Bcl2 can restore the sensitivity of Bcl2-silenced lung cancer cells to BDA-2 and whether the BDA-2/BH4 binding is important for such effect was examined. WT and BDA-2 binding deficient D10A/N11A/R12A/E13A (AAAA) Bcl2 mutant cDNA in pCIneo or vector-only control were transfected into H460 or DMS53 cells expressing Bcl2 shRNA. It has been reported that if the shRNA is directed to the 3′ UTR or 5′ UTR of the gene, the effect of the shRNA1 can be rescued by ectopically expressing the protein using the wild-type or mutant cDNA. Because Bcl2 shRNA1 targets the 5′UTR of endogenous Bcl2, the silencing effect of shRNA1 on Bcl2 expression could be rescued by transfection of exogenous WT or AAAA Bcl2 mutant. After transfection, cells were treated with BDA-2 or the BH3 mimetic ABT-199 at the indicated concentrations for 72 h. […] The apoptotic effect of BDA-2 on lung cancer cells requires its BH4 binding.

Mc1-1 = Mc1-1 (Homo sapiens, UniProt Q07820); assay: binding to other Bcl2 family members
Chain of Mc1-1 (Q07820 whole entry): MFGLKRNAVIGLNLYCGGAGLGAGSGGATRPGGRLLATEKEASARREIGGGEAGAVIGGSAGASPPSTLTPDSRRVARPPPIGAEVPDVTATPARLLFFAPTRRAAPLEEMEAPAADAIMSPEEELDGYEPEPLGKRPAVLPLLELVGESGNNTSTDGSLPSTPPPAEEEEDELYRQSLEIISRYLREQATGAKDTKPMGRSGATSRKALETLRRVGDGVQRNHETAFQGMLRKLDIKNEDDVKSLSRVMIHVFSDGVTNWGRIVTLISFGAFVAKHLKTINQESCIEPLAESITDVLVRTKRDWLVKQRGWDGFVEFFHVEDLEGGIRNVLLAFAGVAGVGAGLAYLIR

[3] = tested on: human lung cancer cell lines; assay: sensitivity of lung cancer cell lines versus ABT-737; type: cell-based
H460 cells = assay: SRB cell growth assay, combination with mTOR inhibitor; type: cell-based, human; settings: BDA-366 100 nM, RAD001 1 nM, alone or in combination, 72 hr
Description: Cell growth was analyzed by sulforhodamine B (SRB) colorimetric assay.

in vivo = assay: in vivo
Description: (§1) In order to define the appropriate doses for in vivo experimentation, the maximum tolerated dose (MTD) was determined. Nu/Nu nude mice were treated in groups of 6 per dose level with increasing doses of BDA-366 (10-50 mg/kg/d) intraperitoneally (i.p.) for up to 12 days. […] Standard single-dose MTD treatment in normal C57BL/6 mice were measured. […] 10% of single dose MTD can usually be considered as the maximum therapeutic dose (30˜40 mg/kg) for continuous treatment.

[4] = target: T1, Bcl2 mutant D10A/N11A/R12A/E13A (AAAA) (Homo sapiens, UniProt P10415, D10A/E13A/N11A/R12A); assay: competitive fluorescence polarization, compound BH4 mutant; type: binding
T1 construct: made in house
T1 sequence (P10415 whole entry D10A/N11A/R12A/E13A): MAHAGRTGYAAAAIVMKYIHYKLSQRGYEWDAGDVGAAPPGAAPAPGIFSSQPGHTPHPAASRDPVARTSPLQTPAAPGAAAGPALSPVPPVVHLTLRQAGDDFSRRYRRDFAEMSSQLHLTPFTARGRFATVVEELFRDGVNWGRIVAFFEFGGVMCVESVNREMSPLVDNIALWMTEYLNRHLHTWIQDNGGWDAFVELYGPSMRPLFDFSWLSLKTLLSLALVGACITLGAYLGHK
Description: A panel of Bcl2 mutants were generated within the BH4 domain at the specific residues that were identified by the initial docking simulations, including D10A, N11A, R12A, E13A, M16A, K17A, H20A and D31A Bcl2 mutants. A compound Bcl2 mutant D10A/N11A/R12A/E13A (AAAA) was created. Recombinant proteins of these mutants were generated for BDA-2/Bcl2 binding analysis using a competitive fluorescence polarization. […] Second, WT and all Bcl2 mutants were exogenously overexpressed in H1299 cells that express undetectable levels of endogenous Bcl2.

[5] = tested on: H460, H157, DMS53, DMS153 and H146 cells expressing Bcl2 shRNA; assay: apoptotic cell death (Annexin-V/PI, FACS) after Bcl2 shRNA knock-down; type: cell-based; settings: 1 μM, 72 h
Description: To determine whether Bcl-2 is the relevant target at the cellular level and whether cell killing is truly dependent on this particular mechanism, Bcl2 was specifically knocked down using three different Bcl2 shRNAs that target different regions in Bcl2 gene in five lung cancer cell lines, including two NSCLC cell lines (H460 and H157) and three SCLC cell lines (DMS53, DMS153 and H146). […] Cells expressing Bcl2 shRNA1, shRNA2, shRNA3 or control shRNA were treated with BDA-2 (1 μM) for 72 h. The level of apoptotic cell death was determined by analysis of Annexin-V/PI binding by FACS.

[6] = tested on: Bcl2 ΔBH3 deletion mutant protein; assay: fluorescence polarization assay with fluorescent Bak peptide; type: binding
Description: (§2) Purified recombinant WT and a panel of Bcl2 BH domain deletion mutant proteins (i.e. ΔBH1, ΔBH2, ΔBH3 and ΔBH4) were commercially obtained from ProteinX Lab. To directly measure BDA-2/Bcl2 binding, a fluorescence polarization assay with a fluorescent Bak peptide (5′-[…]) was performed.

Bcl2 = Bcl2 (Homo sapiens, UniProt P10415); assay: as above; type: binding
Chain of Bcl2 (P10415 whole entry): as the sequence (P10415 whole entry D10A/N11A/R12A/E13A) above, with A10D, A11N, A12R, A13E counted along it
Description: as §2

[7] = tested on: NSCLC cell lines H157, Calu-1, H358, H460, H1975 and SCLC cell lines DMS53, DMS153, H146, H69; assay: cell growth (SRB) and apoptosis (Annexin V/PI), lines with higher Bcl2; type: cell-based; settings: relatively higher levels of Bcl2
Description: The effect of BDA-2 on cell growth and apoptosis was measured by SRB assay and Annexin V/PI binding, respectively, in both small cell lung cancer (SCLC) and non-small cell lung cancer (NSCLC) cell lines that express various levels of endogenous Bcl2.

[8] = tested on: lung cancer xenografts derived from H460 cells; assay: H460 lung cancer xenografts
Description: Each group included 8 mice. Tumor volume was measured once every 2 days. After 14 days, the mice were sacrificed and the tumors were removed and analyzed.
To assess whether BDA-366 induced suppression of tumor growth via apoptosis in vivo, representative samples from harvested tumor tissues were analyzed by immunohistochemistry (IHC) for active caspase 3 or TUNEL assat.

[9] = Description: as §1
[10] = target: purified, human Bcl2 protein (Homo sapiens, UniProt P10415); assay: in vitro cell-free Bcl2 conformational change assay (IP with anti-Bcl2/BH3 domain antibody); type: biochemical
Chain of purified, human Bcl2 protein (P10415 whole entry, the tested form may be a part): as the sequence (P10415 whole entry D10A/N11A/R12A/E13A) above, with A10D, A11N, A12R, A13E counted along it
Description: To test whether BDA-2 directly induces Bcl2 conformational change, an in vitro cell-free assay was employed. Purified recombinant Bcl2 protein was incubated with increasing concentrations of BDA-2 in lysis buffer, followed by immunoprecipitation (IP) using the anti-Bcl2/BH3 domain antibody.

[11] = 10, 20, 30 mg/kg/d i.p., 14 days

CCN(CC)CC(O)CNc1ccc(NCC2CO2)c2c1C(=O)c1ccccc1C2=O (stereo not shown) [BDA-366, 1-((3-(diethylamino)-2-hydroxypropyl)amino)-4-((oxiran-2-ylmethyl)amino)anthracene-9,10-dione]
Cyt c release from isolated mitochondria ([1]; WT Bcl2, 1 μM, 30 min at 30° C.): induced Cyt c release | Bcl2 conformational change and Bax activation ([1]; cells or isolated mitochondria containing WT Bcl2): induced Bcl2 conformational change in association with Bax activation | Bcl2 conformational change and Bax activation ([1]; ΔBH3 Bcl2 mutant or vector-only control): not | sensitivity of cells restored after expression of AAAA Bcl2 [2]: not | binding to Mc1-1 (Mc1-1): failed to bind | binding to Mc1-1 (Mc1-1; listed as BDA-2): did not bind | sensitivity of most human lung cancer cell lines relative to ABT-737 [3]: more sensitive to BDA2 than ABT-737 | cell growth inhibition (H460 cells): partially inhibited lung cancer cell growth | time to death of mice (in vivo; C57BL/6, mouse, 400 mg/kg): 4 days | MTD (in vivo; C57BL/6, mouse, maximum therapeutic dose for continuous treatment (10% of single dose MTD)): 30 to 40 mg/kg | MTD (in vivo; C57BL/6, mouse, single dose MTD): 300 to 400 mg/kg | ALT and AST (in vivo; mouse, 400 mg/kg): significantly enhanced | pathological analysis for all organs (in vivo; mouse, 400 mg/kg): microsteatosis in the liver and atrophic white pulp in the spleen | weight loss or other toxicities (hematologic, liver and kidney functions) (in vivo; mouse, ip, 300 mg/kg): did not cause weight loss or other toxicities | binding to AAAA Bcl2 mutant protein [4]: remarkably decreased BDA-2 binding | sensitivity (apoptotic cell death) after depletion of endogenous Bcl2 [5]: significantly reduced sensitivity | binding after deletion of BH3 [6]: did not significantly affect its BDA-2 binding | Ki (Bcl2; fluorescent Bak peptide, WT Bcl2): 3.3 ± 0.73 nM | inhibitory constant (Ki) value (Bcl2; purified Bcl2 protein, BH4 domain): nanomolar level | sensitivity of cells [7]: more sensitive | body weight ([8]; 30 mg/kg): Weight loss was observed | neutrophils, lymphocytes, RBC and platelets in blood ([8]; 30 mg/kg): no decreases in neutrophils, lymphocytes, red blood cells (RBC) and platelets (PLT) | apoptosis in tumor tissues (active caspase 3 IHC or TUNEL) [8, 11]: dose-dependent apoptosis induction | tumor growth / repression of lung cancer in vivo [8, 11]: potently suppress lung cancer growth in vivo; also recorded: dose-dependent repression of lung cancer in vivo | tumor growth / repression of lung cancer in vivo ([8]; 10, 20, 30 mg/kg/d i.p., 14 days, listed as BDA-2): represses lung cancer in vivo | histopathology of harvested normal tissues ([8]; 10-30 mg/kg/d): no evidence of normal tissue toxicities | kidney (BUN) and liver (ALT and AST) function ([8]; mouse, in vivo): in the normal range | time within which dose was uniformly lethal ([9]; 40 mg/kg/d i.p.): ≤ 8 days | time within which dose was uniformly lethal ([9]; 50 mg/kg/d i.p.): up to 12 days | tolerability ([9]; 10 to 30 mg/kg/d i.p., up to 12 days): tolerable with no death recorded | direct induction of Bcl2 conformational change (BH3 exposure) [10]: enhanced the ability of the Bcl2/BH3 domain-specific antibody to bind Bcl2

— patent publication US9980936B2, “BH4 antagonists and methods related thereto” (Emory University, priority 2014, dated 2018)
